Results published in patent US20110218143A1, “COMPOSITIONS AND METHODS FOR TISSUE REPAIR” (UNIVERSITY OF FLORIDA RESEARCH FOUNDATION, priority 2007, published 2011).

Tests used:
[1] = test system: stem cell populations in bone marrow (cd34+, cd45+, Sca-1+ cells); experiment: FACS of cells expressing stem cell markers CD34, CD45, Sca-1 in bone marrow samples; assay type: in vivo, C57BL6/J mice; conditions: 24 hours post treatment
Description: (§1) Mice received either a placebo (PBS) or oridonin (3.0 mg/kg) by intraperitoneal injection.

[2] = test system: stem cell populations in blood (cd34+, cd45+, Sca-1+ cells); experiment: FACS of cells expressing stem cell markers CD34, CD45, Sca-1 in blood samples; assay type: in vivo, C57BL6/J mice
Description: Mice received either a placebo or triptolide (400 μg/kg) by intraperitoneal injection.
Celastrol analogs administered included dihydrocelastrol, dihydrocelastrol diacetate, and pristimerol (dihydropristimerin). Mice received either a placebo or a celastrol analog (3.0 mg/kg) by intraperitoneal injection.
as §1

[3] = test system: stem cell populations in blood (cd34+, cd45+, Sca-1+ cells); experiment: as above; assay type: in vivo, C57BL6/J mice; conditions: valproic acid 200 mg/kg i.p.; 72 hours post treatment
mice = conditions: mouse, in vivo
Description: Valproic acid was administered to C57BL6/J mice to determine the effect of valproic acid on stem cell populations in bone marrow and in blood. Mice received either a placebo or valproic acid (200 mg/kg) by intraperitoneal injection. […] Bone marrow samples were taken from both groups of mice at 24 hours after administration of the placebo or valproic acid. Blood samples were taken from both groups of mice at 72 hours after administration of the placebo or valproic acid. The bone marrow samples and blood samples were analyzed by FACS for cells expressing stem cell markers. To observe the effect of treatment with valproic acid, cells expressing the stem cell markers CD34, CD45, and Sca-1 in the bone marrow and blood samples, were quantitated as a percentage of the total populations in their respective samples (i.e., in the bone marrow sample and in the blood sample, respectively).

[4] = celastrol analog 3.0 mg/kg i.p.
[5] = celastrol analog 3.0 mg/kg i.p., 24 hours post treatment (so in the source)
[6] = oridonin 3.0 mg/kg i.p., 48 hours post treatment
[7] = valproic acid 200 mg/kg i.p., 72 hours post treatment

Q: How did the “Sca-1+ cells, percent of the population of bone marrow cells” value [1, 4] turn out when `COC(=O)[C@]1(C)CC[C@]2(C)CC[C@]3(C)C4=CCc5c(cc(O)c(O)c5C)[C@]4(C)CC[C@@]3(C)[C@@H]2C1` [pristimerol] was run?
A: about 0.28%

Q: What about the “cd34+ cells, percent of the population of bone marrow cells” value [1, 4] of the same molecule?
A: about 0.28%

Q: What about the “cd45+ cells, percent of the population of bone marrow cells” value [1, 4] of the same molecule?
A: about 0.16%

Q: And the “fold increase of percentage of Sca-1+ cells in bone marrow over control” value [1, 4]?
A: 4-5 fold

Q: And the “fold increase of percentage of cd34+ cells in bone marrow over control” value [1, 4]?
A: greater than 4 fold

Q: What about the “fold increase of percentage of cd45+ cells in bone marrow over control” value [1, 4] of the same molecule?
A: greater than 5 fold

Q: What about the “Sca-1+ cells, percent of the population of blood cells” value [2, 5] of the same molecule?
A: about 0.25%

Q: And the “cd34+ cells, percent of the population of blood cells” value (shortened to “cd34+ cells, percent … of blood cells”) [2, 5]?
A: about 0.4%

Q: What about the “cd45+ cells, percent of the population of blood cells” value (from here on “cd45+ cells, percent … of blood cells”) [2, 5] of the same molecule?
A: about 0.06%

Q: And the “fold increase of percentage of Sca-1+ cells in blood over control” value [2, 5]?
A: ~6 fold

Q: What about the “fold increase of percentage of cd34+ cells in blood over control” value [2, 5] of the same molecule?
A: ~3 fold

Q: And the “fold increase of percentage of cd45+ cells in blood over control” value [2, 5]?
A: ~3 fold

Q: For `C=C1C(=O)[C@]23[C@H](O)[C@H]1CC[C@H]2[C@@]12CO[C@]3(O)[C@@H](O)[C@@H]1C(C)(C)CC[C@@H]2O` [oridonin], which “CD34 cells, percent of the population of bone marrow cells” value ([1]; oridonin 3.0 mg/kg i.p.) is on record?
A: greater than 0.5%

Q: And the “Sca-1+ cells, percent of the population of bone marrow cells” value ([1]; oridonin 3.0 mg/kg i.p.)?
A: about 0.5%

Q: And the “fold increase of percentage of Sca-1+ cells in bone marrow over control” value ([1]; oridonin 3.0 mg/kg i.p.)?
A: ≥ 10 fold

Q: What about the “fold increase of percentage of cd34+ cells in bone marrow over control” value ([1]; oridonin 3.0 mg/kg i.p.) of the same molecule?
A: ≥ 10 fold

Q: And the “Sca-1+ cells, percent of the population of blood cells” value [2, 6]?
A: 0.14%

Q: And the “cd34+ cells, percent … of blood cells” value [2, 6]?
A: approximately 0.18%

Q: What about the “fold increase of percentage of Sca-1+ cells in blood over control” value [2, 6] of the same molecule?
A: ~1.4 fold

Q: What about the “fold increase of percentage of cd34+ cells in blood over control” value [2, 6] of the same molecule?
A: ~1.8 fold

Q: With `CCCC(CCC)C(=O)O` [valproic acid] as the molecule, how does the “fold increase of percentage of Sca-1+ cells in blood over control” value [3] read?
A: ~3 fold

Q: What about the “fold increase of percentage of cd45+ cells in blood over control” value [3] of the same molecule?
A: ~4 fold

Q: And the “CD34 cells, percent of the population of bone marrow cells” value ([1]; valproic acid 200 mg/kg i.p.)?
A: about 0.2%

Q: And the “Sca-1+ cells, percent of the population of bone marrow cells” value ([1]; valproic acid 200 mg/kg i.p.)?
A: about 0.18%

Q: And the “cd45+ cells, percent of the population of bone marrow cells” value ([1]; valproic acid 200 mg/kg i.p.)?
A: about 0.08%

Q: What about the “fold increase of percentage of Sca-1+ cells in bone marrow over control” value ([1]; valproic acid 200 mg/kg i.p.) of the same molecule?
A: ~6 fold

Q: What about the “fold increase of percentage of cd34+ cells in bone marrow over control” value ([1]; valproic acid 200 mg/kg i.p.) of the same molecule?
A: ≥ 4 fold

Q: And the “fold increase of percentage of cd45+ cells in bone marrow over control” value ([1]; valproic acid 200 mg/kg i.p.)?
A: ≥ 3 fold

Q: What about the “Sca-1+ cells, percent of the population of blood cells” value [2, 7] of the same molecule?
A: less than 0.4%

Q: What about the “cd34+ cells, percent … of blood cells” value [2, 7] of the same molecule?
A: greater than 0.4%

Q: What about the “cd45+ cells, percent … of blood cells” value [2, 7] of the same molecule?
A: less than 0.2%

Q: What about the “fold increase of percentage of cd34+ cells in blood over control” value [2, 7] of the same molecule?
A: ~2.6 fold

Q: And the toxicity in mice (mice)?
A: not toxic

Q: How did the “Sca-1+ cells, percent of the population of bone marrow cells” value [1, 4] turn out when dihydrocelastrol diacetate was run?
A: about 0.17%

Q: And the “cd34+ cells, percent of the population of bone marrow cells” value [1, 4]?
A: 0.15%

Q: What about the “change of percentage of cd45+ cells in bone marrow compared to untreated control” value [1, 4] of the same molecule?
A: decrease

Q: What about the “fold increase of percentage of Sca-1+ cells in bone marrow over control” value [1, 4] of the same molecule?
A: ~3 fold

Q: And the “fold increase of percentage of cd34+ cells in bone marrow over control” value [1, 4]?
A: ~3 fold

Q: And the “Sca-1+ cells, percent of the population of blood cells” value [2, 5]?
A: about 1.4%

Q: What about the “cd34+ cells, percent … of blood cells” value [2, 5] of the same molecule?
A: 1.5%

Q: And the “cd45+ cells, percent … of blood cells” value [2, 5]?
A: about 0.4%

Q: And the “fold increase of percentage of Sca-1+ cells in blood over control” value [2, 5]?
A: ~36 fold

Q: What about the “fold increase of percentage of cd34+ cells in blood over control” value [2, 5] of the same molecule?
A: ~10 fold

Q: What about the “fold increase of percentage of cd45+ cells in blood over control” value [2, 5] of the same molecule?
A: ~20 fold
